Source: paper PMC12042115 (mLife, 2025)
Where two headings read alike, the source gives them in different places.

System: wild‐type BCG cells
Type: cell-based, M. bovis BCG

## O=C(Oc1ccc(Cl)cc1)c1ccc(N2CCOCC2)c([N+](=O)[O-])c1 [GDI‐5755]
2‐day treated cells
  ClpB upregulation: 1.56 fold
2‐day treatment, 2×MIC
  detected proteome downregulated: ~ 37.9%
3‐day treated cells
  ClpB upregulation: 1.47 fold
3 d
  Mean_Ratio (GDI5755_3d vs DMSO_3d): 0.7
Day 2
  number of proteins accumulated (upregulated): 216 proteins
Day 2 and Day 3
  proteome remaining downregulated into the third day: 29.1%
Day 3
  number of proteins accumulated (upregulated): 188 proteins
GDI‐5755‐treated cells
  EthA upregulation: > 1.4 fold
Table S5, BCG_0001 Chromosomal replication initiator protein DnaA
  Mean_Ratio GDI5755_3d: DMSO_3d: 0.8
Table S5, BCG_0066 Fatty-acid-coa ligase fadD34
  Mean_Ratio GDI5755_3d: DMSO_3d: 0.7
Table S5, BCG_0101c Serine hydroxy methyltransferase
  Mean_Ratio GDI5755_3d: DMSO_3d: 0.8
Table S5, BCG_0207 MCE-family protein mce1B
  Mean_Ratio GDI5755_3d: DMSO_3d: 0.7
Table S5, BCG_0208 MCE-family protein mce1C
  Mean_Ratio GDI5755_3d: DMSO_3d: 0.8
Table S5, BCG_0209 MCE-family protein mce1D
  Mean_Ratio GDI5755_3d: DMSO_3d: 0.7
Table S5, BCG_0210 MCE-family lipoprotein lprK
  Mean_Ratio GDI5755_3d: DMSO_3d: 0.7
Table S5, BCG_0211 MCE-family protein mce1F
  Mean_Ratio GDI5755_3d: DMSO_3d: 0.7
Table S5, BCG_0442 Probable fatty-acid-CoA ligase fadD30
  Mean_Ratio GDI5755_3d: DMSO_3d: 0.7
Table S5, BCG_0495c Enoyl-CoA hydratase echA2
  Mean_Ratio GDI5755_3d: DMSO_3d: 0.5
Table S5, BCG_0546c cmaA2
  Mean_Ratio GDI5755_3d: DMSO_3d: 0.7
Table S5, BCG_0547c UPF0336 protein
  Mean_Ratio GDI5755_3d: DMSO_3d: 0.8
Table S5, BCG_0591c Possible oxidoreductase
  Mean_Ratio GDI5755_3d: DMSO_3d: 0.8
Table S5, BCG_0692c Methoxy mycolic acid synthase 3 mmaA3
  Mean_Ratio GDI5755_3d: DMSO_3d: 0.6
Table S5, BCG_0693c Methoxy mycolic acid synthase 2 mmaA2
  Mean_Ratio GDI5755_3d: DMSO_3d: 0.7
Table S5, BCG_1048 UTP--glucose-1-phosphate uridylyltransferase
  Mean_Ratio GDI5755_3d: DMSO_3d: 0.7
Table S5, BCG_1203c Probable enoyl-CoA hydratase echA11
  Mean_Ratio GDI5755_3d: DMSO_3d: 0.7
Table S5, BCG_1311c Uncharacterized protein
  Mean_Ratio GDI5755_3d: DMSO_3d: 0.8
Table S5, BCG_1534 Macrolide-transport ATP-binding protein ABC transporter
  Mean_Ratio GDI5755_3d: DMSO_3d: 0.8
Table S5, BCG_1579c Mycocerosic acid synthase-like polyketide synthase
  Mean_Ratio GDI5755_3d: DMSO_3d: 0.7
Table S5, BCG_1619c Possible inv protein
  Mean_Ratio GDI5755_3d: DMSO_3d: 0.7
Table S5, BCG_1699 Possible chalcone synthase pks10
  Mean_Ratio GDI5755_3d: DMSO_3d: 0.8
Table S5, BCG_1896 Alanine and proline-rich secreted protein Apa
  Mean_Ratio GDI5755_3d: DMSO_3d: 0.6
Table S5, BCG_1922c Chorismate mutase
  Mean_Ratio GDI5755_3d: DMSO_3d: 0.7
Table S5, BCG_1923c Mycolyltransferase Ag85B
  Mean_Ratio GDI5755_3d: DMSO_3d: 0.7
Table S5, BCG_1962 Probable lipase lipD
  Mean_Ratio GDI5755_3d: DMSO_3d: 0.6
Table S5, BCG_2254 ER-bound oxygenase mpaB
  Mean_Ratio GDI5755_3d: DMSO_3d: 0.8
Table S5, BCG_2260 Malonyl CoA-acyl carrier protein transacylase fabD
  Mean_Ratio GDI5755_3d: DMSO_3d: 0.7
Table S5, BCG_2310 Probable aminotransferase
  Mean_Ratio GDI5755_3d: DMSO_3d: 0.8
Table S5, BCG_2317 Cutinase
  Mean_Ratio GDI5755_3d: DMSO_3d: 0.7
Table S5, BCG_2546c Putative peptidoglycan hydrolase
  Mean_Ratio GDI5755_3d: DMSO_3d: 0.8
Table S5, BCG_2550 ERCC4 domain-containing protein
  Mean_Ratio GDI5755_3d: DMSO_3d: 0.7
Table S5, BCG_2886c Possible penicillin-binding lipoprotein
  Mean_Ratio GDI5755_3d: DMSO_3d: 0.6
Table S5, BCG_2977 Methyltransferase FkbM domain-containing protein
  Mean_Ratio GDI5755_3d: DMSO_3d: 0.7
Table S5, BCG_3009c 3-isopropylmalate dehydratase large subunit
  Mean_Ratio GDI5755_3d: DMSO_3d: 0.6
Table S5, BCG_3111 alcohol dehydrogenase adhD
  Mean_Ratio GDI5755_3d: DMSO_3d: 0.8
Table S5, BCG_3296 LytR family transcriptional regulator
  Mean_Ratio GDI5755_3d: DMSO_3d: 0.8
Table S5, BCG_3375 Possible acid phosphatase
  Mean_Ratio GDI5755_3d: DMSO_3d: 0.8
Table S5, BCG_3658 Probable conserved lipoprotein lpqF
  Mean_Ratio GDI5755_3d: DMSO_3d: 0.8
Table S5, BCG_3731c Possible chalcone synthase pks11
  Mean_Ratio GDI5755_3d: DMSO_3d: 0.7
Table S5, BCG_3772 Lipid II isoglutaminyl synthase subunit MurT
  Mean_Ratio GDI5755_3d: DMSO_3d: 0.7
Table S5, BCG_3866c Mycolyltransferase Ag85A
  Mean_Ratio GDI5755_3d: DMSO_3d: 0.8
Table S5, BCG_3882c Trehalose-2-sulfate acyltransferase PapA2
  Mean_Ratio GDI5755_3d: DMSO_3d: 0.8
Table S6, BCG_0130 decarboxylase
  Mean_Ratio GDI5755_3d: DMSO_3d: 1.5
Table S6, BCG_0289c Heat stress-induced ribosome-binding protein A, acr2
  Mean_Ratio GDI5755_3d: DMSO_3d: 3.9
Table S6, BCG_0347c Acetoacetate decarboxylase
  Mean_Ratio GDI5755_3d: DMSO_3d: 1.3
Table S6, BCG_0389 Chaperone protein DnaK
  Mean_Ratio GDI5755_3d: DMSO_3d: 1.5
Table S6, BCG_0390 Protein GrpE/HSP-70 cofactor
  Mean_Ratio GDI5755_3d: DMSO_3d: 1.4
Table S6, BCG_0391 Chaperone protein DnaJ
  Mean_Ratio GDI5755_3d: DMSO_3d: 1.5
Table S6, BCG_0422c Chaperone protein ClpB
  Mean_Ratio GDI5755_3d: DMSO_3d: 1.5
Table S6, BCG_0463c Uncharacterized protein
  Mean_Ratio GDI5755_3d: DMSO_3d: 1.4
Table S6, BCG_0726c Possible conserved membrane protein mmpS5
  Mean_Ratio GDI5755_3d: DMSO_3d: 1.4
Table S6, BCG_0774 Possible protease IV sppA (Endopeptidase IV)
  Mean_Ratio GDI5755_3d: DMSO_3d: 1.4
Table S6, BCG_0909 Cyclase
  Mean_Ratio GDI5755_3d: DMSO_3d: 1.3
Table S6, BCG_0993 Bifunctional 2-hydroxyhepta-2,4-diene-1,7-dioate isomerase
  Mean_Ratio GDI5755_3d: DMSO_3d: 1.3
Table S6, BCG_1028c Probable acetyl-/propionyl-coa carboxylase, accD2
  Mean_Ratio GDI5755_3d: DMSO_3d: 1.4
Table S6, BCG_1037 Two-component sensor kinase MprB
  Mean_Ratio GDI5755_3d: DMSO_3d: 1.2
